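Cells were grown in 96-well plates and exposed to each compound for 48 hours at five concentrations; endpoints were interpolated linearly between bracketing concentrations, or set to the highest concentration if not reached. GI50 marks 50% less growth.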 Active and inactive are the calls of the source. No stated cut-off is given here; in the data, active = GI50 up to about 1.1 µM and inactive = higher.
Key:
Experiment in all cases: NCI anticancer screen, dose series, 48 h
SK-MEL-5 = test system: SK-MEL-5
MDA-N = test system: MDA-N
RPMI-8226 = test system: RPMI-8226
ACHN = test system: ACHN
T47D = test system: T47D
HCT-15 = test system: HCT-15
UO-31 = test system: UO-31
SNB-19 = test system: SNB-19
EKVX = test system: EKVX
SF-295 = test system: SF-295
HOP-62 = test system: HOP-62
A498 = test system: A498
Malme-3M = test system: Malme-3M
SK-MEL-28 = test system: SK-MEL-28
HCT-116 = test system: HCT-116
KM12 = test system: KM12
TK-10 = test system: TK-10
Hs-578T = test system: Hs-578T
UACC-62 = test system: UACC-62
SK-MEL-2 = test system: SK-MEL-2
HOP-92 = test system: HOP-92
MDA-MB-435 = test system: MDA-MB-435
CAKI-1 = test system: CAKI-1
K562 = test system: K562
CCRF-CEM = test system: CCRF-CEM
SR = test system: SR
UACC-257 = test system: UACC-257
OVCAR-3 = test system: OVCAR-3
M14 = test system: M14
NCI/ADR-RES = test system: NCI/ADR-RES
DU-145 = test system: DU-145
IGROV-1 = test system: IGROV-1
HT-29 = test system: HT-29
A549 = test system: A549
SF-539 = test system: SF-539
NCI-H522 = test system: NCI-H522
OVCAR-8 = test system: OVCAR-8
HCC 2998 = test system: HCC 2998
NCI-H460 = test system: NCI-H460
OVCAR-5 = test system: OVCAR-5
U-251 = test system: U-251
OVCAR-4 = test system: OVCAR-4
MCF7 = test system: MCF7
PC-3 = test system: PC-3
SN12C = test system: SN12C
BT-549 = test system: BT-549
SK-OV-3 = test system: SK-OV-3
786-0 = test system: 786-0
COLO 205 = test system: COLO 205
RXF 393 = test system: RXF 393
LOX IMVI = test system: LOX IMVI
MOLT-4 = test system: MOLT-4
SNB-75 = test system: SNB-75
NCI-H23 = test system: NCI-H23
SF-268 = test system: SF-268
HL-60 = test system: HL-60
NCI-H226 = test system: NCI-H226
SW-620 = test system: SW-620
MDA-MB-231 = test system: MDA-MB-231

SMILES: O=C1c2c(Br)sc(Br)c2C(=O)C1(O)O
- GI50 (SK-MEL-5): 19.9 µM (inactive)
- GI50 (MDA-N): 36.8 µM (inactive)
- GI50 (RPMI-8226): 46.6 µM (inactive)
- GI50 (ACHN): 31.8 µM (inactive)
- GI50 (T47D): 21.8 µM (inactive)
- GI50 (HCT-15): 27.1 µM
- GI50 (UO-31): 34.2 µM (inactive)
- GI50 (SNB-19): > 100 µM (inactive)
- GI50 (EKVX): 53.6 µM (inactive)
- GI50 (SF-295): > 100 µM (inactive)
- GI50 (HOP-62): > 100 µM (inactive)
- GI50 (A498): > 100 µM (inactive)
- GI50 (Malme-3M): 19.3 µM (inactive)
- GI50 (SK-MEL-28): > 100 µM (inactive)
- GI50 (HCT-116): 19.7 µM (inactive)
- GI50 (KM12): > 100 µM (inactive)
- GI50 (TK-10): 72.3 µM (inactive)
- GI50 (Hs-578T): > 100 µM (inactive)
- GI50 (UACC-62): 76.2 µM (inactive)
- GI50 (SK-MEL-2): 29.8 µM (inactive)
- GI50 (HOP-92): 17.9 µM (inactive)
- GI50 (MDA-MB-435): 19.4 µM (inactive)
- GI50 (CAKI-1): 18.6 µM (inactive)
- GI50 (K562): 27.7 µM (inactive)
- GI50 (CCRF-CEM): 27.7 µM (inactive)
- GI50 (SR): 24.1 µM (inactive)
- GI50 (UACC-257): 19.8 µM (inactive)
- GI50 (OVCAR-3): 19.4 µM (inactive)
- GI50 (M14): 19.2 µM (inactive)
- GI50 (NCI/ADR-RES): > 100 µM (inactive)
- GI50 (DU-145): > 100 µM (inactive)
- GI50 (IGROV-1): > 100 µM (inactive)
- GI50 (HT-29): 39.3 µM (inactive)
- GI50 (A549): > 100 µM (inactive)
- GI50 (SF-539): 20.8 µM (inactive)
- GI50 (NCI-H522): 18.8 µM (inactive)
- GI50 (OVCAR-8): 35.7 µM (inactive)
- GI50 (HCC 2998): > 100 µM (inactive)
- GI50 (NCI-H460): > 100 µM (inactive)
- GI50 (OVCAR-5): 23.7 µM (inactive)
- GI50 (U-251): 39.7 µM (inactive)
- GI50 (OVCAR-4): 18.3 µM (inactive)
- GI50 (MCF7): 44.5 µM (inactive)
- GI50 (PC-3): 22.8 µM (inactive)
- GI50 (SN12C): 98.9 µM (inactive)
- GI50 (BT-549): 19.3 µM (inactive)
- GI50 (SK-OV-3): > 100 µM (inactive)
- GI50 (786-0): 34 µM (inactive)
- GI50 (COLO 205): 23.4 µM (inactive)
- GI50 (RXF 393): 19.1 µM (inactive)
- GI50 (LOX IMVI): > 100 µM (inactive)
- GI50 (MOLT-4): 33.6 µM (inactive)
- GI50 (SNB-75): 36.4 µM (inactive)
- GI50 (NCI-H23): 33.4 µM (inactive)
- GI50 (SF-268): > 100 µM (inactive)
- GI50 (HL-60): 41 µM (inactive)
- GI50 (NCI-H226): > 100 µM (inactive)
- GI50 (SW-620): 35.6 µM (inactive)

SMILES: COc1ccc2c(c1)CCCN1CCc3cc(OC)c(OC)cc3C21 (stereo not drawn)
- GI50 (SK-MEL-5): > 100 µM (inactive)
- GI50 (MDA-N): > 100 µM (inactive)
- GI50 (RPMI-8226): 71.4 µM (inactive)
- GI50 (ACHN): 84.1 µM (inactive)
- GI50 (T47D): > 100 µM (inactive)
- GI50 (HCT-15): > 100 µM
- GI50 (UO-31): 25.5 µM (inactive)
- GI50 (SNB-19): > 100 µM (inactive)
- GI50 (EKVX): > 100 µM (inactive)
- GI50 (SF-295): 46.5 µM (inactive)
- GI50 (HOP-62): > 100 µM (inactive)
- GI50 (Malme-3M): > 100 µM (inactive)
- GI50 (SK-MEL-28): > 100 µM (inactive)
- GI50 (HCT-116): 76 µM (inactive)
- GI50 (KM12): > 100 µM (inactive)
- GI50 (TK-10): > 100 µM (inactive)
- GI50 (UACC-62): > 100 µM (inactive)
- GI50 (MDA-MB-435): > 100 µM (inactive)
- GI50 (CAKI-1): > 100 µM (inactive)
- GI50 (K562): 61.7 µM (inactive)
- GI50 (CCRF-CEM): > 100 µM (inactive)
- GI50 (SR): > 100 µM (inactive)
- GI50 (UACC-257): > 100 µM (inactive)
- GI50 (OVCAR-3): > 100 µM (inactive)
- GI50 (M14): > 100 µM (inactive)
- GI50 (NCI/ADR-RES): 21.8 µM (inactive)
- GI50 (DU-145): > 100 µM (inactive)
- GI50 (IGROV-1): > 100 µM (inactive)
- GI50 (HT-29): 47.9 µM (inactive)
- GI50 (A549): > 100 µM (inactive)
- GI50 (SF-539): 35.5 µM (inactive)
- GI50 (MDA-MB-231): > 100 µM (inactive)
- GI50 (OVCAR-8): > 100 µM (inactive)
- GI50 (HCC 2998): 45.7 µM (inactive)
- GI50 (OVCAR-5): > 100 µM (inactive)
- GI50 (U-251): > 100 µM (inactive)
- GI50 (MCF7): > 100 µM (inactive)
- GI50 (PC-3): > 100 µM (inactive)
- GI50 (SN12C): > 100 µM (inactive)
- GI50 (BT-549): 4.09 µM (inactive)
- GI50 (SK-OV-3): > 100 µM (inactive)
- GI50 (786-0): > 100 µM (inactive)
- GI50 (COLO 205): > 100 µM (inactive)
- GI50 (LOX IMVI): 77.1 µM (inactive)
- GI50 (MOLT-4): 50.5 µM (inactive)
- GI50 (SNB-75): > 100 µM (inactive)
- GI50 (SF-268): > 100 µM (inactive)
- GI50 (HL-60): 41.1 µM (inactive)
- GI50 (NCI-H226): > 100 µM (inactive)
- GI50 (SW-620): > 100 µM (inactive)

— ChEMBL document CHEMBL1201862, “PubChem BioAssay data set” (2004)
